Assay results reported in ChEMBL document CHEMBL1141520, “New cytotoxic saturated and unsaturated cyclohexanones from Anthemis maritima” (Bioorg Med Chem Lett, 2008).
pIC50: −log10 of the molar value.

Columns and labels:
Format in all cases: functional, cell-based
MCF7 = test: Antiproliferative activity against human MCF7 cells after 72 hrs by WST1 based assay; details: MCF7, 72 h
U-937 = test: Antiproliferative activity against human U937 cells after 72 hrs by WST1 based assay; details: U-937, 72 h
Caco-2 = test: Antiproliferative activity against human CaCo2 cells after 72 hrs by WST1 based assay; details: Caco-2, 72 h
Jurkat = test: Antiproliferative activity against human Jurkat T cells after 72 hrs by WST1 based assay
HL-60 = test: Antiproliferative activity against human HL60 cells after 72 hrs by WST1 based assay; details: HL-60, 72 h
HCT-116 = test: Antiproliferative activity against human HCT116 cells after 72 hrs by WST1 based assay; details: HCT-116, 72 h

pIC50 (MCF7) | pIC50 (U-937) | pIC50 (Caco-2) | pIC50 (Jurkat) | pIC50 (HL-60) | pIC50 (HCT-116) | Structure (SMILES)
5.03 | 5.66 | 4.98 | 5.72 | 6.05 | 5.23 | C=C1C(=O)O[C@@H]2C3O[C@]3(C)CC/C=C(\C)CC[C@@H]12 (stereo partly drawn)
4.68 | 5.21 | 4.96 | 5.05 | 5.12 | 4.82 | CC(C)=CCCC(C)(O)[C@H]1CC(=O)C(CO)=C[C@@H]1O (stereo partly drawn) [ANTHEMINONE A]
4.82 | 5.13 | 5.03 | 5.08 | 5.49 | 4.72 | C=C1C(=O)C[C@@H](C(C)(O)CCC=C(C)C)[C@H](O)[C@H]1O (stereo partly drawn) [ANTHEMINONE C]
